Test results reported in ChEMBL document CHEMBL2021794, “Synthesis, σ₁, σ₂-receptors binding affinity and antiproliferative action of new C1-substituted adamantanes” (Bioorg Med Chem, 2012).
pIC50: −log10 of the molar value.

How the values were obtained:
HCT-116 = assay: Growth inhibition of human HCT116 cells after 48 hrs by SRB assay; type: functional; conditions: HCT-116, 48 h; for CC50: read-out: LC50 (the source's name)
MCF7 = assay: Growth inhibition of human MCF7 cells after 48 hrs by SRB assay; type: functional; conditions: MCF7, 48 h; for CC50: read-out: LC50 (the source's name)
OVCAR-5 = assay: Growth inhibition of human OVCAR5 cells after 48 hrs by SRB assay; type: functional; conditions: OVCAR-5, 48 h; for CC50: read-out: LC50 (the source's name)
SF-268 = assay: Growth inhibition of human SF268 cells after 48 hrs by SRB assay; type: functional; conditions: SF-268, 48 h; for CC50: read-out: LC50 (the source's name)
NCI-H460 = assay: Growth inhibition of human NCI-H460 cells after 48 hrs by SRB assay; type: functional; conditions: NCI-H460, 48 h
MIA PaCa-2 = assay: Growth inhibition of human MIAPaCa2 cells after 48 hrs by SRB assay; type: functional; conditions: MIA PaCa-2, 48 h; for CC50: read-out: LC50 (the source's name)
BXPC-3 [1] = assay: Growth inhibition of human BxPC3 cells after 48 hrs by SRB assay; type: functional; conditions: BXPC-3, 48 h
SK-HEP1 = assay: Growth inhibition of human SKHEP1 cells after 48 hrs by SRB assay; type: functional; conditions: SK-HEP1, 48 h; for CC50: read-out: LC50 (the source's name)
[2] = (§1) Growth inhibition of HUVEC cells after 48 hrs by SRB assay; type: cell-based; conditions: human, HUVEC cells
HUVEC = assay: as §1; type: cell-based; conditions: human, huvec, 48 h
[3] = biological target: Sigma non-opioid intracellular receptor 1 (Homo sapiens, UniProt Q99720); assay: Displacement of [3H](+)pentazocine from sigma-1 receptor expressed in human Jurkat cell membranes after 2 hrs by liquid scintillation spectroscopy
[4] = Displacement of [3H](+)1-DTG from sigma-2 receptor expressed in rat cerebral cortex membranes after 2 hrs by liquid scintillation spectroscopy; type: cell membranes, Membrane
[5] = Displacement of [3H]BTX-B from Na+ channel site 2 after 60 mins by liquid scintillation spectroscopy
[6] = Selectivity ratio of IC50 for human sigma-1 receptor to IC50 for rat sigma-2 receptor
HCT-15 = assay: Growth inhibition of human HCT15 cells after 48 hrs by SRB assay; type: functional; conditions: HCT-15, 48 h
DU-145 = assay: Growth inhibition of human DU145 cells after 48 hrs by SRB assay; type: functional; conditions: DU-145, 48 h; for CC50: read-out: LC50 (the source's name)
PC-3 = assay: Growth inhibition of human PC3 cells after 48 hrs by SRB assay; type: functional; conditions: PC-3, 48 h; for CC50: read-out: LC50 (the source's name)
IGROV-1 = assay: Growth inhibition of human IGROV1 cells after 48 hrs by SRB assay; type: functional; conditions: IGROV-1, 48 h; for CC50: read-out: LC50 (the source's name)
SF-295 = assay: Growth inhibition of human SF295 cells after 48 hrs by SRB assay; type: functional; conditions: SF-295, 48 h; for CC50: read-out: LC50 (the source's name)
U-251 = assay: Growth inhibition of human U251 cells after 48 hrs by SRB assay; type: functional; conditions: U-251, 48 h; for CC50: read-out: LC50 (the source's name)
DMS-114 = assay: Growth inhibition of human DMS114 cells after 48 hrs by SRB assay; type: functional; conditions: DMS-114, 48 h; for CC50: read-out: LC50 (the source's name)
NCI-H69 = assay: Growth inhibition of human NCI-H69 cells after 48 hrs by SRB assay; type: functional; conditions: NCI-H69, 48 h; for CC50: read-out: LC50 (the source's name)
H69AR = assay: Growth inhibition of human H69AR cells after 48 hrs by SRB assay; type: functional; conditions: for CC50: read-out: LC50 (the source's name)
HL-60(TB) = assay: Growth inhibition of human HL-60(TB) cells after 48 hrs by SRB assay; type: functional; conditions: HL-60, 48 h
[7] = Growth inhibition of human MSC cells after 48 hrs by SRB assay; type: cell-based; conditions: for GI50 at 48 h: MSC cells; for LC50 / TGI: msc, 48 h
BXPC-3 [8] = assay: Antitumor activity against human BxPC3 cells xenografted in SCID mouse assessed as reduction in tumor volume at 17 mg/kg, ip twice a week; type: functional; conditions: BXPC-3, ip, route intraperitoneal
BXPC-3 [9] = assay: Antitumor activity against human BxPC3 cells xenografted in SCID mouse assessed as tumor weight at 17 mg/kg, ip twice a week (reference value: 723 +/- 45 mg); type: functional; conditions: route intraperitoneal
LOX IMVI = assay: Growth inhibition of human LOXIMVI cells after 48 hrs by SRB assay; type: functional
[10] = (§2) Growth inhibition of NHDF cells after 48 hrs by SRB assay; type: cell-based; conditions: human, NHDF cells
NHDF = assay: as §2; type: cell-based; conditions: human, nhdf, 48 h

Chain of Sigma non-opioid intracellular receptor 1 (Q99720 whole entry): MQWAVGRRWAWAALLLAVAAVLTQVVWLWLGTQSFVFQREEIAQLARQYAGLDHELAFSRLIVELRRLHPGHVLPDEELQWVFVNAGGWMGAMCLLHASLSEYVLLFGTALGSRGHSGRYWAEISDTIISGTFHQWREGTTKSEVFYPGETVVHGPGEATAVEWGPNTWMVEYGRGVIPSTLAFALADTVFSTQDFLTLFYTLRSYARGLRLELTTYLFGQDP

Structure (SMILES): c1ccc(CN2CCN(c3ccc(C(c4ccccc4)C45CC6CC(CC(C6)C4)C5)cc3)CC2)cc1 (stereo not given)
- GI50 (HCT-116): 12 µM
- TGI (HCT-116): 100 µM
- CC50 (HCT-116): 100 µM
- GI50 (MCF7): 22.3 µM
- TGI (MCF7): 99.4 µM
- CC50 (MCF7): 100 µM
- GI50 (OVCAR-5): 84.3 µM
- TGI (OVCAR-5): 100 µM
- CC50 (OVCAR-5): 100 µM
- CC50 (SF-268): 100 µM
- GI50 (NCI-H460): 54.7 µM
- LC50 (concentration killing 50% of cells) (NCI-H460): 100 µM
- TGI (NCI-H460): 100 µM
- GI50 (MIA PaCa-2): 14.9 µM
- TGI (MIA PaCa-2): 100 µM
- CC50 (MIA PaCa-2): 100 µM
- GI50 (BXPC-3 [1]): 7.51 µM
- LC50 (BXPC-3 [1]): 100 µM
- TGI (BXPC-3 [1]): 52.1 µM
- GI50 (SK-HEP1): 23.5 µM
- TGI (SK-HEP1): 100 µM
- CC50 (SK-HEP1): 100 µM
- GI50 at 48 h [2]: 76.8 µM
- LC50 (HUVEC): 100 µM
- TGI (HUVEC): 100 µM
- pIC50 [3]: 7.20
- pIC50 [4]: 6.92
- pIC50 [5]: 5.80
- Ratio IC50 [6]: 1.9

Structure (SMILES): O=c1[nH]cc(F)c(=O)[nH]1 [FLUOROURACIL]
- GI50 (HCT-116): 9.9 µM
- TGI (HCT-116): 100 µM
- CC50 (HCT-116): 100 µM
- GI50 (HCT-15): 21 µM
- TGI (HCT-15): 100 µM
- GI50 (DU-145): 9.37 µM
- TGI (DU-145): 100 µM
- CC50 (DU-145): 100 µM
- GI50 (PC-3): 21 µM
- TGI (PC-3): 100 µM
- CC50 (PC-3): 100 µM
- GI50 (MCF7): 9.9 µM
- TGI (MCF7): 100 µM
- CC50 (MCF7): 100 µM
- GI50 (IGROV-1): 9.1 µM
- TGI (IGROV-1): 100 µM
- CC50 (IGROV-1): 100 µM
- GI50 (OVCAR-5): 20 µM
- TGI (OVCAR-5): 100 µM
- CC50 (OVCAR-5): 100 µM
- GI50 (SF-295): 76 µM
- TGI (SF-295): 100 µM
- CC50 (SF-295): 100 µM
- GI50 (U-251): 82 µM
- TGI (U-251): 100 µM
- CC50 (U-251): 100 µM
- GI50 (NCI-H460): 6.5 µM
- TGI (NCI-H460): 100 µM
- GI50 (DMS-114): 100 µM
- TGI (DMS-114): 100 µM
- CC50 (DMS-114): 100 µM
- GI50 (NCI-H69): 100 µM
- TGI (NCI-H69): 100 µM
- CC50 (NCI-H69): 100 µM
- GI50 (H69AR): 100 µM
- TGI (H69AR): 100 µM
- CC50 (H69AR): 100 µM
- GI50 (HL-60(TB)): 100 µM
- TGI (HL-60(TB)): 100 µM
- GI50 (MIA PaCa-2): 30 µM
- TGI (MIA PaCa-2): 100 µM
- CC50 (MIA PaCa-2): 100 µM
- GI50 (BXPC-3 [1]): 8.2 µM
- TGI (BXPC-3 [1]): 100 µM
- GI50 (SK-HEP1): 6.3 µM
- TGI (SK-HEP1): 100 µM
- CC50 (SK-HEP1): 100 µM
- GI50 at 48 h [2]: 9.72 µM
- LC50 (HUVEC): 100 µM
- TGI (HUVEC): 100 µM
- GI50 at 48 h [7]: 8.92 µM
- LC50 [7]: 100 µM
- TGI [7]: 86.06 µM
- inhibition in vivo at 17 mg/kg (BXPC-3 [8]): 3.25%
- Activity (BXPC-3 [9]): 700%

Structure (SMILES): CCN1CCN(c2ccc(C(c3ccccc3)C34CC5CC(CC(C5)C3)C4)cc2)CC1 (stereo not given)
- GI50 (HCT-116): 6.39 µM
- TGI (HCT-116): 32.9 µM
- CC50 (HCT-116): 100 µM
- GI50 (HCT-15): 6.63 µM
- LC50 (HCT-15): 100 µM
- TGI (HCT-15): 41.2 µM
- GI50 (DU-145): 17.8 µM
- TGI (DU-145): 58.7 µM
- CC50 (DU-145): 99.6 µM
- GI50 (PC-3): 9.01 µM
- TGI (PC-3): 65.6 µM
- CC50 (PC-3): 100 µM
- GI50 (MCF7): 9.23 µM
- TGI (MCF7): 59 µM
- CC50 (MCF7): 100 µM
- GI50 (IGROV-1): 8 µM
- TGI (IGROV-1): 49 µM
- CC50 (IGROV-1): 100 µM
- GI50 (OVCAR-5): 6 µM
- TGI (OVCAR-5): 24.5 µM
- CC50 (OVCAR-5): 77.8 µM
- GI50 (SF-268): 8.24 µM
- TGI (SF-268): 53.5 µM
- CC50 (SF-268): 100 µM
- GI50 (SF-295): 19.6 µM
- TGI (SF-295): 50.9 µM
- CC50 (SF-295): 82.2 µM
- GI50 (U-251): 4.23 µM
- TGI (U-251): 7.42 µM
- CC50 (U-251): 12 µM
- GI50 (NCI-H460): 5.77 µM
- LC50 (concentration killing 50% of cells) (NCI-H460): 100 µM
- TGI (NCI-H460): 9.44 µM
- GI50 (DMS-114): 6.05 µM
- TGI (DMS-114): 11.6 µM
- CC50 (DMS-114): 20.3 µM
- GI50 (NCI-H69): 5.54 µM
- CC50 (NCI-H69): 100 µM
- GI50 (H69AR): 4.75 µM
- TGI (H69AR): 7.82 µM
- CC50 (H69AR): 100 µM
- GI50 (HL-60(TB)): 6.39 µM
- LC50 (HL-60(TB)): 100 µM
- TGI (HL-60(TB)): 100 µM
- GI50 (BXPC-3 [1]): 7.07 µM
- LC50 (BXPC-3 [1]): > 100 µM
- TGI (BXPC-3 [1]): 41.6 µM
- GI50 (SK-HEP1): 3.98 µM
- TGI (SK-HEP1): 7.24 µM
- CC50 (SK-HEP1): 29.8 µM
- GI50 (LOX IMVI): 3.79 µM
- LC50 (concentration killing 50% of cells) (LOX IMVI): 8.4 µM
- TGI (LOX IMVI): 6.09 µM
- GI50 at 48 h [2]: 3.56 µM
- LC50 (HUVEC): 9.88 µM
- TGI (HUVEC): 6.72 µM
- GI50 at 48 h [7]: 19.5 µM
- LC50 [7]: 100 µM
- TGI [7]: 72 µM
- GI50 at 48 h [10]: 7.43 µM
- LC50 (NHDF): 100 µM
- TGI (NHDF): 100 µM
- pIC50 [3]: 8.54
- pIC50 [4]: 8.40
- pIC50 [5]: 6.15
- Ratio IC50 [6]: 1.4
